Data: US10307357B2, “Prebiotic oral care compositions containing an alkyl glycoside” (COLGATE-PALMOLIVE COMPANY, priority 2013, dated 2019)

Experiments:
Type in all cases: cell-based
periodontopathogens = test: Mixed culture competition, conclusion over periodontopathogens; conditions: S. salivarius and β-methyl-D-galactoside added (C) compared with A, B, after 24 h and 48 hours, p<0.001
Method: (§1) The pathogenic species Prevotella intermedia, Aggregatibacter actinomyctemcomitans, Porphyromonas gingivalis, Fusobacterium nucleatum, Streptococcus mutans and beneficial species Streptococcus salivarius are used as model organisms for experiments. Bacterial strains are grown on blood agar plates (Oxoid, Basingstoke, UK) supplemented with 5 μg/ml hemin (Sigma Chemical Co, St. Louis, Mo.), 1 μg/ml menadion and 5% sterile horse blood (Biotrading, Keerbergen, Belgium). Bacteria are collected from blood agar plates and transferred to 10 ml brain heart infusion broth (BHI) (Difco Laboratories, Detroit, Mich.). P. intermedia, P. gingivalis, and F. nucleatum were incubated overnight at 37° C. in an anaerobic atmosphere, A. actinomycetemcomitans, S. mutans and S. salivarius are incubated overnight at 37° C. in a 5% CO2 environment. Bacterial concentration is adjusted by measuring optical density at 600 nm.
In vitro effect of β-methyl-D-galactoside on pathogens: Bacterial solutions of periodontopathogens, P. intermedia, F. nucleatum, A. actinomycetemcomitans and P. gingivalis, cariogenic species S. mutans and beneficial species, S. salivarius, are prepared of which the optical density was adjusted to 1×10^7 CFU/ml. Experiments are carried out as a dual-species model in 24 well plates containing one pathogen (1 ml) and S. salivarius (1 ml). […]

[1] = test system: beneficial oral and pathogenic oral bacteria; test: Twenty-four hour optical density, conclusion over the panel; conditions: at concentrations of 10, 20 and 25 μmol/ml; threshold 1.25
Text: Substrates that were able to increase the growth (or maximal growth density or extent of growth) of at least one of the above beneficial bacteria while not or only minimally increasing the growth (or maximal growth density) of the pathogenic bacteria are considered to be prebiotic compounds. The extent of growth of the tested bacteria in response to selected glycosides (β-methyl-D-galactoside and α-methyl-D-galactoside) was investigated by setting up growth curves in a nutritionally rich medium (brain heart infusion broth (BHI), Oxoid), over 24 hours. […] For each combination of bacterium/glycoside, and for each of their respective controls (i.e. the particular bacterium in the nutritionally rich medium with no glycoside), the optical density was measured at 630 nm (OD630) at 0 h and 24 h (Thermo Scientific Multiskan Ascent). Additionally, the OD630 for combinations of bacterium/glycosides grown in a 5% CO2 environment were also measured every hour between 0 h and 9 h. […] For each day and for each combination, the average (mean) of the values obtained (as detailed above) for the four technical replicas was calculated to provide a single value for each combination on each day. […]

Fusobacterium nucleatum = test: Mixed culture (dual-species) competition, selective plating; conditions: C: with S. salivarius; after 48 h
Method: as §1
(§2) In vitro effect of β-methyl-D-galactoside on pathogens: Bacterial solutions of periodontopathogens, P. intermedia, F. nucleatum, A. actinomycetemcomitans and P. gingivalis, cariogenic species S. mutans and beneficial species, S. salivarius, are prepared of which the optical density was adjusted to 1×10^7 CFU/ml. Experiments are carried out as a dual-species model in 24 well plates containing one pathogen (1 ml) and S. salivarius (1 ml). Different conditions are tested: the two microorganisms with (C) or without (D) β-methyl-D-galactoside (200 μl, dissolved in AD (aqua distillata)), only the periodontopathogen with (B) or without (A) β-methyl-D-galactoside (200 μl). β-methyl-D-galactoside is used at a final concentration of 1 mg/ml. When S. salivarius is not added to the mixture, BHI is added to obtain an equal volume. When β-methyl-D-galactoside is not added to the mixture, AD was added to obtain an equal volume. Plates are incubated at 37° C. in an anaerobic atmosphere. Selective microbial plating is carried out at 0 h, 24 h, and 48 h. Selective agar plates are prepared for each bacterium. P. intermedia and P. gingivalis are cultured on CDC anaerobe 5% sheep blood agar (Becton Dickinson, Franklin Lakes, N.J.), A. actinomycetemcomitans on Tryptic soy serum bacitracin vancomycin agar (TSBV) (Oxoid, Basingstoke, UK), F. nucleatum on crystal violet erythromycin (CVE) agar (Oxoid, Basingstoke, UK), S. mutans on tryptone yeast extract cystine sucrose bacitracin (TYCSB) agar (Oxoid, Basingstoke, UK) and S. salivarius on Phenylethyl alcohol agar (Becton Dickinson, Franklin Lakes, N.J.).
(§3) Statistical analysis: For statistical analysis of the data, the data are log10 transformed to obtain a normal distribution. A linear mixed model is built to assess differences between treatments. A correction for multiple hypothesis testing is carried out.

Streptococcus mutans = test: as above; conditions: β-methyl-D-galactoside and S. salivarius present; p=0.9999
Method: as §1, §2, §3

[2] = test system: Aggregatibacter actinomycetemcomitans; test: as above; conditions: C: with S. salivarius; after only 24 h
Method: as §1, §2, §3

Porphyromonas gingivalis = test: as above; conditions: C: with S. salivarius; after only 24 h
Method: as §1, §2, §3

Prevotella intermedia = test: as above; conditions: C: with S. salivarius; after 48 h
Method: as §1, §2, §3

CO[C@@H]1O[C@H](CO)[C@H](O)[C@H](O)[C@H]1O [β-methyl-D-galactoside]
number of periodontopathogens, in words (periodontopathogens): significant decrease | prebiotic effect (extent of growth), in words [1]: exhibited prebiotic effects | pathogen numbers, in words (Fusobacterium nucleatum): significantly lower but remained slightly above zero | reduction of pathogen, in words (Streptococcus mutans): no reduction is observed | concentration of pathogen, in words [2]: decline in concentration to zero | concentration of pathogen, in words (Porphyromonas gingivalis): decline in concentration to zero | pathogen numbers, in words (Prevotella intermedia): significantly lower but remained slightly above zero
